Measured values published in patent US20190060473A1, “HSP90 INHIBITOR DRUG CONJUGATES” (priority 2016, published 2019).

Legend:
[1] = system: HER2 expression in BT-474 human breast cancer cells; assay: In-Cell Western assay (ICW) for HER2 expression in BT-474 cells; assay type: cell-based; conditions: BT-474 cells, 24 h incubation, 3-fold serial dilutions, HER2 signal normalized to DRAQ5; read-out: HER2 (ICW)
Procedure: The HDCs as described herein were used in various experiments to determine their activity and properties, such as binding affinity and stability in blood. An in-Cell Western assay (ICW) for HER2 expression was carried out in BT-474 human breast cancer cells. BT-474 cells were seeded in 96-well plates at a density of 20,000 cells per well. Twenty-four hours after plating, cells were dosed with graded concentrations of HDCs using 3-fold serial dilutions and incubated for 24 h. Growth media containing drug was aspirated off. Cells were then fixed in 4% paraformaldehyde for 20 min and washed three times in 0.1% Triton X-100. After blocking for 1.5 h in Odyssey Blocking Buffer (LI-COR, Lincoln, Nebr., USA), cells were incubated with primary HER2 antibody overnight at 4° C. Wells were washed three times with 0.1% Tween-20 and incubated in secondary antibody (LI-COR, Lincoln, Nebr., USA) and DRAQ5 (CST, Beverly, Mass., USA) for 1 h. Following 3 final washes with 0.1% Tween-20, antibody-antigen complexes were visualized using the Odyssey system. For quantification, HER2 signal was normalized to DRAQ5 flourescent probe.

[2] = Metabolic stability in mouse whole blood (LC-MS/MS); assay type: in vitro ADME; conditions: mouse whole blood, 10 μM, percent of test compound remaining after 1 hour, average of duplicate
Procedure: Metabolic stability of various HDCs was tested in mouse blood. All compounds were tested at a concentration of 10 μM. The time dependent disappearance of test compound in mouse whole blood, and the release of the compound qualitatively as determined by liquid chromatography tandem mass spectrometry (LC-MS/MS), was tested at time points of 15 minutes, 30 minutes, 45 minutes and 1 hour. All compounds were tested in duplicate, and the average was taken. The results in Table 2 show the percent of test compound remaining after 1 hour.

[3] = target: Hsp90; assay: Binding affinity (Kd) by standard methods
Procedure: Finally, binding affinity (Kd) was determined for various HDCs using standard methods.

Row | SMILES | IC50 [1] | Mouse blood stability 1 h (% remaining) [2] | Kd [3]
1 | CCNC(=O)c1nnc(-c2cc(C(C)C)c(O)cc2O)n1-c1ccc(CN2CCC(C(=O)N3CCC(C(=O)OC[C@@H](NC(=O)c4cc(-c5cc(NC(C)C)ncc5Cl)c[nH]4)c4cccc(Cl)c4)CC3)CC2)c(F)c1 [SDC-TRAP-0510, (S)-2-(4-(5-chloro-2-(isopropylamino)pyridin-4-yl)-1H-pyrrole-2-carboxamido)-2-(3-chlorophenyl)ethyl 1-(1-(4-(3-(2,4-dihydroxy-5-isopropylphenyl)-5-(ethylcarbamoyl)-4H-1,2,4-triazol-4-yl)-2-fluorobenzyl)piperidine-4-carbonyl)piperidine-4-carboxylate] | 91 nM | 77.1% | 6.14 nM
2 | CC(C)Nc1cc(-c2c[nH]c(C(=O)N[C@H](COC(=O)C3CCN(C(=O)C4CCN(Cc5ccc(-n6c(O)nnc6-c6cc(C(C)C)c(O)cc6O)cc5F)CC4)CC3)c3cccc(Cl)c3)c2)c(Cl)cn1 [SDC-TRAP-0511, (S)-2-(4-(5-chloro-2-(isopropylamino)pyridin-4-yl)-1H-pyrrole-2-carboxamido)-2-(3-chlorophenyl)ethyl 1-(1-(4-(3-(2,4-dihydroxy-5-isopropylphenyl)-5-hydroxy-4H-1,2,4-triazol-4-yl)-2-fluorobenzyl)piperidine-4-carbonyl)piperidine-4-carboxylate] | 465 nM | 30.8% | 2.9 nM
3 | CC(C)Nc1cc(-c2c[nH]c(C(=O)N[C@H](COC(=O)CC3CCN(C(=O)C4CCN(Cc5ccc(-n6c(O)nnc6-c6cc(C(C)C)c(O)cc6O)cc5F)CC4)CC3)c3cccc(Cl)c3)c2)c(Cl)cn1 [SDC-TRAP-0513, (S)-2-(4-(5-chloro-2-(isopropylamino)pyridin-4-yl)-1H-pyrrole-2-carboxamido)-2-(3-chlorophenyl)ethyl 2-(1-(1-(4-(3-(2,4-dihydroxy-5-isopropylphenyl)-5-hydroxy-4H-1,2,4-triazol-4-yl)-2-fluorobenzyl)piperidine-4-carbonyl)piperidin-4-yl)acetate] | 519 nM | 48.2% | 0.88 nM
4 | CCNC(=O)c1nnc(-c2cc(C(C)C)c(O)cc2O)n1-c1ccc(CN2CCC(C(=O)N3CC(C(=O)OC[C@@H](NC(=O)c4cc(-c5cc(NC(C)C)ncc5Cl)c[nH]4)c4cccc(Cl)c4)C3)CC2)c(F)c1 [SDC-TRAP-0515, (S)-2-(4-(5-chloro-2-(isopropylamino)pyridin-4-yl)-1H-pyrrole-2-carboxamido)-2-(3-chlorophenyl)ethyl 1-(1-(4-(3-(2,4-dihydroxy-5-isopropylphenyl)-5-(ethylcarbamoyl)-4H-1,2,4-triazol-4-yl)-2-fluorobenzyl)piperidine-4-carbonyl)azetidine-3-carboxylate] | 181 nM | 30% | 0.97 nM
5 | CCNC(=O)c1nnc(-c2cc(C(C)C)c(O)cc2O)n1-c1ccc(CN2CCC(C(=O)N3CC[C@H](C(=O)OC[C@@H](NC(=O)c4cc(-c5cc(NC(C)C)ncc5Cl)c[nH]4)c4cccc(Cl)c4)C3)CC2)c(F)c1 [SDC-TRAP-0516, (S)-(S)-2-(4-(5-chloro-2-(isopropylamino)pyridin-4-yl)-1H-pyrrole-2-carboxamido)-2-(3-chlorophenyl)ethyl 1-(1-(4-(3-(2,4-dihydroxy-5-isopropylphenyl)-5-(ethylcarbamoyl)-4H-1,2,4-triazol-4-yl)-2-fluorobenzyl)piperidine-4-carbonyl)pyrrolidine-3-carboxylate] | 123 nM | 55.5% | 1.29 nM
6 | CCNC(=O)c1nnc(-c2cc(C(C)C)c(O)cc2O)n1-c1ccc(C(=O)N(C)[C@@H](C(=O)N[C@H](C(=O)N(C)C([C@@H](C)CC)[C@@H](CC(=O)N2CCC[C@@H]2[C@@H](OC)[C@@H](C)C(=O)N[C@@H](C)[C@H](O)c2ccccc2)OC)C(C)C)C(C)C)cc1 (stereo partly drawn) [SDC-TRAP-0536, 5-(2,4-dihydroxy-5-isopropylphenyl)-N-ethyl-4-(4-(((2R)-1-(((2S)-1-(((3R,5S)-1-((R)-2-((1S,2R)-3-(((1R,2S)-1-hydroxy-1-phenylpropan-2-yl)amino)-1-methoxy-2-methyl-3-oxopropyl)pyrrolidin-1-yl)-3-methoxy-5-methyl-1-oxoheptan-4-yl)(methyl)amino)-3-methyl-1-oxobutan-2-yl)amino)-3-methyl-1-oxobutan-2-yl)(methyl)carbamoyl)phenyl)-4H-1,2,4-triazole-3-carboxamide] |  |  | 0.77 nM
